Measured values: patent US20220409629A1, “BENZODIAZEPINE DERIVATIVES FOR TREATING A RESPIRATORY SYNCYTIAL VIRUS (RSV) INFECTION” (priority 2019, published 2022)

Tests used:
RSV A2 = assay: RSV plaque reduction assay; assay type: cell-based, respiratory syncytial virus (RSV); settings: Hep-G2 cells, RSV A2, mean of at least two experiments
Outline: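 RSV A2 (100 PFU/well) premixed with eight serial compound dilutions, added to confluent Hep-G2 monolayers for 2 h at 37° C, then held 2 days under CMC overlay containing compound (DMEM, 2% FBS). Plaques immunostained (HRP/TrueBlue) and counted; EC50 is 50% reduction versus virus control from 4-parameter fit, mean of ≥2 experiments.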

Hep-G2 cells = assay: Cell cytotoxicity CC50; assay type: cell-based; settings: mean of at least two experiments
[1] = Liver microsomal stability, rat; assay type: in vitro ADME; settings: rat liver microsomes, 0.5 mg/mL protein, 1 μM compound, NADPH, >80% remaining at 45 min denoted >140
Outline: (§1)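 Pooled liver microsomes (0.5 mg/mL protein) in 0.1 M phosphate pH 7.4 with 1 μM compound (0.25% DMSO), started with 1 mM NADPH at 37° C; sampled 0-45 min, minus-NADPH control 45 min. LC-MS/MS depletion slope gave t1/2 and CLint.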

[2] = Liver microsomal stability, human; assay type: in vitro ADME; settings: human liver microsomes, 0.5 mg/mL protein, 1 μM compound, NADPH, >80% remaining at 45 min denoted >140
Outline: as §1

[3] = Liver microsomal stability, dog; assay type: in vitro ADME; settings: dog liver microsomes, 0.5 mg/mL protein, 1 μM compound, NADPH, >80% remaining at 45 min denoted >140
Outline: as §1

[4] = Liver hepatocyte stability, dog; assay type: in vitro ADME; settings: dog hepatocytes, 3 μM compound, 60 min, >80% remaining at 60 min denoted >186, read-out: Liver Hepatocyte Stability: t1/2 (min)
Protocol: (§2) Cryopreserved pooled hepatocytes were purchased from a reputable commercial supplier and stored in liquid nitrogen prior to use. Williams E media supplemented with 2 mM L-glutamine and 25 mM HEPES and test compound (final substrate concentration 3 μM; final DMSO concentration 0.25%) are pre-incubated at 37° C. prior to the addition of a suspension of cryopreserved hepatocytes (final cell density 0.5×10^6 viable cells/mL in Williams E media supplemented with 2 mM L-glutamine and 25 mM HEPES) to initiate the reaction. The final incubation volume is 500 μL. Two control compounds were included with each species, alongside appropriate vehicle control. The reactions are stopped by transferring 50 μL of incubate to 100 μL acetonitrile containing internal standard at the appropriate time points. Samples were removed at 6 time points (0, 5, 15, 30, 45 and 60 min) over the course of a 60 min experiment. The termination plates are centrifuged at 2500 rpm at 4° C. for 30 min to precipitate the protein. Following protein precipitation, the sample supernatants were combined in cassettes of up to 4 compounds and analysed using generic LC-MS/MS conditions. From a plot of ln peak area ratio (compound peak area/internal standard peak area) against time, the gradient of the line is determined. Subsequently, half-life (t1/2) and intrinsic clearance (CLint) were calculated.

[5] = Liver hepatocyte stability, rat; assay type: in vitro ADME; settings: rat hepatocytes, 3 μM compound, 60 min, >80% remaining at 60 min denoted >186, read-out: Liver Hepatocyte Stability: t1/2 (min)
Protocol: as §2

[6] = Liver hepatocyte stability, human; assay type: in vitro ADME; settings: human hepatocytes, 3 μM compound, 60 min, >80% remaining at 60 min denoted >186, read-out: Liver Hepatocyte Stability: t1/2 (min)
Protocol: as §2

[7] = Rat pharmacokinetics in vivo; settings: male Sprague Dawley rats
Protocol: The pharmacokinetics of compounds were studied in vivo in rats at doses of 1 mg/kg (IV) and 10 mg/kg (PO).
Male rats (Sprague Dawley) surgically prepared with a jugular vein cannula were treated with experimental compounds via intravenous administration (IV; n=3; 1 mg/kg) or oral administration (PO; n=3; 10 mg/kg). Compounds were formulated as a solution in 40:60 dimethylacetamide:saline (IV administration), a suspension in 1% methyl cellulose (viscosity: 15 cP), 0.1% Tween80 in water (PO administration: Example 3), a solution in 10% DMSO/10% Cremaphor/80% water (PO administration: Examples 4, 11, 21, 23, 25, 26, 32) or a solution in 10% DMSO/20% Cremaphor/70% water (PO administration: Examples 19, 20, 22, 24, 30). […] Serial blood samples were collected via the cannula at 0.02, 0.08, 0.25, 0.5, 1, 2, 4, 6, 8 and 24 h post IV dosing of compound, and at 0.08, 0.25, 0.5, 1, 2, 4, 6, 8 and 24 h post oral dosing of compound, and plasma was prepared by centrifugation and stored immediately at −80° C. Samples were subsequently thawed, prepared for analysis by protein precipitation with acetonitrile, and analysed by tandem LCMS using electrospray ionisation using a matrix-matched calibration curve. PK parameters were calculated from the resulting data.

Cell cytotoxicity CC50 = assay type: cell-based; settings: human; mean of at least two experiments
RSV = settings: Antimicrobial Agents and Chemotherapy, September 2007, 3346-3353; cited from earlier work

“3-[6-(Cyclopropylamino)-2-fluoropyridin-3-yl]-1-(oxetan-3-yl)-N-[(3S)-2-oxo-5-phenyl-1,3-dihydro-1,4-benzodiazepin-3-yl]pyrazole-4-carboxamide [Example 37]” showed an EC50 (RSV A2) of 78 nM and a CC50 (Hep-G2 cells) of over 25000 nM.
In the case of “3-[6-(Cyclopropylamino)-2-fluoropyridin-3-yl]-N-[(3S)-9-fluoro-2-oxo-5-phenyl-1,3-dihydro-1,4-benzodiazepin-3-yl]-1-(oxetan-3-yl)pyrazole-4-carboxamide [Example 36]”, the “Liver Microsomal Stability: t1/2 (min); rat” value [1] is reported as 93.2 min, the “Liver Microsomal Stability: t1/2 (min); human” value [2] is reported as 68.5 min and the EC50 (RSV A2) is reported as 45 nM. The CC50 (Hep-G2 cells) was over 25000 nM and the “Liver Microsomal Stability: t1/2 (min); dog” value [3] was 191 min.
Compound `O=C(N[C@H]1N=C(c2ccccc2)c2cccc(F)c2NC1=O)c1cn(C2CCOCC2)nc1-c1ccc(NC2CC2)nc1F` [Example 32, 3-[6-(Cyclopropylamino)-2-fluoropyridin-3-yl]-N-[(3S)-9-fluoro-2-oxo-5-phenyl-2,3-dihydro-1H-1,4-benzodiazepin-3-yl]-1-(oxan-4-yl)-1H-pyrazole-4-carboxamide] has a half-life [4] of over 186 min, a half-life ([1]; pH 7.4, read-out: Liver Microsomal Stability: t1/2 (min), rat) of 127 min and a half-life [5] of 376 min. The half-life ([2]; pH 7.4, read-out: Liver Microsomal Stability: t1/2 (min), human) was 298 min, the EC50 (RSV A2; human respiratory syncytial virus, HepG2) was 58 nM and the half-life [6] was over 186 min. The “C 8 h” value ([7]; 8 h, doses 1 mg/kg (IV) and 10 mg/kg (PO)) was 84 ng/mL, the Vd ([7]; rat, in vivo, IV 1 mg/kg) was 1.1 L/kg and the clearance ([7]; rat, in vivo, IV 1 mg/kg) was 17.7 mL/min/kg. For the same compound, the bioavailability ([7]; rat, in vivo, IV 1 mg/kg, PO 10 mg/kg) was 19.3%, the half-life ([7]; rat, in vivo, IV 1 mg/kg, read-out: IV t½ (converted)) was 1.2 h and the AUC(0-t) ([7]; rat, in vivo, PO 10 mg/kg, read-out: PO AUClast) was 1940 ng·h/mL. The half-life ([7]; rat, in vivo, PO 10 mg/kg, read-out: PO t½ (converted)) was 5.2 h, the Cmax ([7]; rat, in vivo, doses 1 mg/kg (IV) and 10 mg/kg (PO)) was 452 ng/mL and the CC50 (Cell cytotoxicity CC50) was over 25000 nM. The half-life ([3]; pH 7.4, read-out: Liver Microsomal Stability: t1/2 (min), dog) was 331 min.
In the case of `O=C(Nc1ccccc1F)N[C@H]1N=C(c2ccccc2)c2ccccc2NC1=O` [RSV604], the anti-RSV activity (RSV) is listed as “sub-micromolar”.
